Test results as given in US11312706B2, “Cyclohexyl acid pyrazole azines as LPA antagonists” (BRISTOL-MYERS SQUIBB COMPANY, priority 2017, dated 2022).

Biological target: T1, human LPA1 (Homo sapiens, UniProt Q92633)
T1 construct: expressed in transfected cells; host or cells: Chinese hamster ovary (CHO) cells
Experiment: LPA1 functional antagonist assay (LPA-induced calcium flux)
Assay type: cell-based
Conditions: CHO cells overexpressing human LPA1, 10 nM LPA, read-out: hLPA1 IC50
Procedure: The effectiveness of compounds of the present invention as LPA1 inhibitors can be determined in an LPA1 functional antagonist assay as follows:
Chinese hamster ovary cells overexpressing human LPA1 were plated overnight (15,000 cells/well) in poly-D-lysine coated 384-well microplates (Greiner bio-one, Cat #781946) in DMEM/F12 medium (Gibco, Cat #11039). Following overnight culture, cells were loaded with calcium indicator dye (AAT Bioquest Inc, Cat #34601) for 30 minutes at 37° C. The cells were then equilibrated to room temperature for 30 minutes before the assay. Test compounds solubilized in DMSO were transferred to 384 well non-binding surface plates (Corning, Cat #3575) using the Labcyte Echo acoustic dispense and diluted with assay buffer [1×HBSS with calcium/magnesium (Gibco Cat #14025-092), 20 mM HEPES (Gibco Cat #15630-080) and 0.1% fatty acid free BSA (Sigma Cat #A9205)] to a final concentration of 0.5% DMSO. Diluted compounds were added to the cells by FDSS6000 (Hamamatsu) at final concentrations ranging from 0.08 nM to 5 μM. and were then incubated for 20 min at room temperature at which time LPA (Avanti Polar Lipids Cat #857130C) was added at final concentrations of 10 nM to stimulate the cells. The compound IC50 value was defined as the concentration of test compound which inhibited 50% of the calcium flux induced by LPA alone. IC50 values were determined by fitting data to a 4-parameter logistic equation (GraphPad Prism, San Diego Calif.).

T1 sequence (Q92633 whole entry): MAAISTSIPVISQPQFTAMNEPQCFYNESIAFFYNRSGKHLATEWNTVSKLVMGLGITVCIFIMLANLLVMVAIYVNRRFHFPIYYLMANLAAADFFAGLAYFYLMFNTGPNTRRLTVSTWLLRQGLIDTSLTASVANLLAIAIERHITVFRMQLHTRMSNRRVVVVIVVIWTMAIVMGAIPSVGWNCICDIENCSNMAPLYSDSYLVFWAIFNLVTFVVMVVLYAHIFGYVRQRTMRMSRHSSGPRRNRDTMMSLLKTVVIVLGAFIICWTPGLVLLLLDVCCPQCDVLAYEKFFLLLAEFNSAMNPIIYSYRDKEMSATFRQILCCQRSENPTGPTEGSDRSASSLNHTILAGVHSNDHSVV

| SMILES | IC50 |
| --- | --- |
| CCOc1ccnc(NCc2c(-c3ncc(O[C@H]4CCC[C@H](C(=O)O)C4)c(C)n3)cnn2C)n1 [Example 3, (1S,3S)-3-((2-(5-(((4-ethoxypyrimidin-2-yl)amino)methyl)-1-methyl-1H-pyrazol-4-yl)-4-methyl-pyrimidin-5-yl)oxy)cyclohexane-1-carboxylic acid] | 22 nM |
| Cc1nc(-c2cnn(C)c2CNc2nccc(-c3ccccn3)n2)ncc1O[C@H]1CCC[C@H](C(=O)O)C1 [Example 17, (1S,3S)-3-((4-methyl-2-(1-methyl-5-(((4-(pyridin-2-yl)pyrimidin-2-yl)amino)methyl)-1H-pyrazol-4-yl)pyrimidin-5-yl)oxy)cyclohexane-1-carboxylic acid] | 79 nM |
| Cc1nc(-c2cnn(C)c2CNc2nccc(OC3CC3)n2)ncc1O[C@H]1CCC[C@H](C(=O)O)C1 [Example 7, (1S,3S)-3-((2-(5-(((4-cyclopropoxy-pyrimidin-2-yl)amino)methyl)-1-methyl-1H-pyrazol-4-yl)-4-methylpyrimidin-5-yl)oxy)cyclohexane-1-carboxylic acid] | 22 nM |
| CCOc1ccnc(N(C)Cc2c(-c3ncc(O[C@H]4CCC[C@H](C(=O)O)C4)cn3)cnn2C)n1 [Example 29] | 151 nM |
| CCCOc1ccnc(Nc2c(-c3ncc(O[C@H]4CCC[C@H](C(=O)O)C4)c(C)n3)cnn2C)n1 [Example 20, (1S,3S)-3-((4-methyl-2-(1-methyl-5-((4-propoxypyrimidin-2-yl)amino)-1H-pyrazol-4-yl)pyrimidin-5-yl)oxy)cyclohexane-1-carboxylic acid] | 1230 nM |
| Cc1nc(-c2cnn(C)c2CNc2nccc(OCC(F)(F)F)n2)ncc1O[C@H]1CCC[C@H](C(=O)O)C1 [Example 16, (1S,3S)-3-((4-methyl-2-(1-methyl-5-(((4-(2,2,2-trifluoroethoxy)pyrimidin-2-yl)amino)methyl)-1H-pyrazol-4-yl)pyrimidin-5-yl)oxy)cyclohexane-1-carboxylic acid] | 12 nM |
| Cc1nc(-c2cnn(C)c2CNc2nccc(OCC(C)F)n2)ncc1O[C@H]1CCC[C@H](C(=O)O)C1 (stereo partly drawn) [Example 33, (1S,3S)-3-((2-(5-(((4-(2-fluoropropoxy)pyrimidin-2-yl)amino)methyl)-1-methyl-1H-pyrazol-4-yl)-4-methylpyrimidin-5-yl)oxy)cyclohexane-1-carboxylic acid] | 21 nM |
| Cc1nc(-c2cnn(C)c2CNc2ncnc(C3CCCC3)n2)ncc1O[C@H]1CCC[C@H](C(=O)O)C1 [Example 15, (1S,3S)-3-((2-(5-(((4-cyclopenty1-1,3,5-triazin-2-yl)amino)methyl)-1-methyl-1H-pyrazol-4-yl)-4-methylpyrimidin-5-yl)oxy)cyclohexane carboxylic acid] | 148 nM |
| Cc1nc(-c2cnn(C)c2CNc2nccc(Oc3ccccc3)n2)ncc1O[C@H]1CCC[C@H](C(=O)O)C1 [Example 9, (1S,3S)-3((4-methyl-2-(1-methyl-5-(((4-phenoxypyrimidin-2-yl)amino)-methyl)-1H-pyrazol-4-yl)pyrimidin-5-yl)oxy)cyclohexane-1-carboxylic acid] | 32 nM |
| Cc1nc(-c2cnn(C)c2CNc2nccc(OCC(F)F)n2)ncc1O[C@H]1CCC[C@H](C(=O)O)C1 [Example 40, (1S,3S)-3-((2-(5-(((4-(2,2-difluoroethoxy)pyrimidin-2-yl)amino)methyl)-1-methyl-1H-pyrazol-4-yl)-4-methylpyrimidin-5-yl)oxy)cyclohexane-1-carboxylic acid] | 2.7 nM |
| Cc1nc(-c2cnn(C)c2CNc2nccc(OCC(F)(F)C(F)F)n2)ncc1O[C@H]1CCC[C@H](C(=O)O)C1 [Example 39, (1S,3S)-3((4-methyl-2-(1-methyl-5-(((4-(2,2,3,3-tetrafluoropropoxy)pyrimidin-2-yl)amino)methyl)-1H-pyrazol-4-yl)pyrimidin-5-yl)oxy)cyclohexane-1-carboxylic acid] | 6.2 nM |
| CCc1nc(-c2cnn(C)c2CNc2nccc(OCCOC)n2)ncc1O[C@H]1CCC[C@H](C(=O)O)C1 [Example 27, (1S,3S)-3-((4-ethyl-2-(5-(((4-(2-methoxyethoxy)pyrimidin-2-yl)amino)methyl)-1-methyl-1H-pyrazol-4-yl)pyrimidin-5-yl)oxy)cyclohexane-1-carboxylic acid] | 61 nM |
| CCCNc1nc(NCc2c(-c3ncc(O[C@H]4CCC[C@H](C(=O)O)C4)c(C)n3)cnn2C)ncc1F [Example 37, (1S,3S)-3-((2-(5-(((5-fluoro-4-(propylamino)pyrimidin-2-yl)amino)methyl)-1-methyl-1H-pyrazol-4-yl)-4-methylpyrimidin-5-yl)oxy)cyclohexane-1-carboxylic acid] | 13 nM |
| CCCOc1ccnc(NCc2c(-c3ncc(O[C@H]4CCC[C@H](C(=O)O)C4)c(CC)n3)cnn2C)n1 [Example 23, (1S,3S)-3-((4-ethyl-2-(1-methyl-5-(((4-propoxypyrimidin-2-yl)amino)methyl)-1H-pyrazol-4-yl)pyrimidin-5-yl)oxy) cyclohexane-1-carboxylic acid] | 2 nM |
| CCc1nc(-c2cnn(C)c2CNc2nccc(OCC(C)(F)F)n2)ncc1O[C@H]1CCC[C@H](C(=O)O)C1 [Example 26] | 15 nM |
| COCCCOc1ccnc(NCc2c(-c3ncc(O[C@H]4CCC[C@H](C(=O)O)C4)c(C)n3)cnn2C)n1 [Example 36, (1S,3S)-3-((2-(5-(((4-(3-methoxypropoxy)pyrimidin-2-yl)amino)methyl)-1-methyl-1H-pyrazol-4-yl)-4-methylpyrimidin-5-yl)oxy)cyclohexane-1-carboxylic acid] | 27 nM |
| Cc1nc(-c2cnn(C)c2CNc2nccc(OCCCF)n2)ncc1O[C@H]1CCC[C@H](C(=O)O)C1 [Example 41, (1S,3S)-3-((2-(5-(((4-(3-fluoropropoxy)pyrimidin-2-yl)amino)methyl)-1-methyl-1H-pyrazol-4-yl)-4-methylpyrimidin-5-yl)oxy)cyclohexane-1-carboxylic acid] | 7.1 nM |
| Cc1nc(-c2cnn(C)c2CNc2nccc(OC3CC(F)(F)C3)n2)ncc1O[C@H]1CCC[C@H](C(=O)O)C1 [Example 31, (1S,3S)-3-((2-(5-(((4-(3,3-difluorocyclobutoxy)pyrimidin-2-yl)amino)methyl)-1-methyl-1H-pyrazol-4-yl)-4-methylpyrimidin-5-yl)oxy)cyclohexane-1-carboxylic acid] | 122 nM |
| Cc1nc(-c2cnn(C)c2CNc2nccc(-c3ccccc3)n2)ncc1O[C@H]1CCC[C@H](C(=O)O)C1 [Example 13, (1S,3S)-3-((4-methyl-2-(1-methyl-5-(((4-phenylpyrimidin-2-yl)amino)methyl)-1H-pyrazol-4-yl)pyrimidin-5-yl)oxy)cyclohexanecarboxylic acid] | 33 nM |
| Cn1ncc(-c2ccc(O[C@H]3CCC[C@H](C(=O)O)C3)cn2)c1CNc1nccc(-c2ccccc2)n1 (relative stereo) [Example 1, Trans-3-((6-(1-methyl-5-(((4-phenylpyrimidin-2-yl)amino)methyl)-1H-pyrazol-4-yl)pyridin-3-yl)oxy)cyclohexane-1-carboxylic acid] | 122 nM |
| Cc1nc(-c2cnn(C)c2CNc2ncnc(C(C)C)n2)ncc1O[C@H]1CCC[C@H](C(=O)O)C1 [Example 43, (1S,3S)-3-((2-(5-(((4-isopropyl-1,3,5-triazin-2-yl)amino)methyl)-1-methyl-1H-pyrazol-4-yl)-4-methylpyrimidin-5-yl)oxy)cyclohexane-1-carboxylic acid] | 28 nM |
| CCc1nc(-c2cnn(C)c2CNc2nccc(OC)n2)ncc1O[C@H]1CCC[C@H](C(=O)O)C1 [Example 24, (1S,3S)-3-((4-ethyl-2-(5-(((4-methoxypyrimidin-2-yl)amino)methyl)-1-methyl-1H-pyrazol-4-yl)pyrimidin-5-yl)oxy)cyclohexane-1-carboxylic acid] | 350 nM |
| CCNc1nc(NCc2c(-c3ncc(O[C@H]4CCC[C@H](C(=O)O)C4)c(C)n3)cnn2C)ncc1F [Example 38, (1S,3S)-3-((2-(5-(((4-(ethylamino)-5-fluoropyrimidin-2-yl)amino)methyl)-1-methyl-1H-pyrazol-4-yl)-4-methylpyrimidin-5-yl)oxy)cyclohexane-1-carboxylic acid] | 41 nM |
| CCCc1ccnc(Nc2c(-c3ncc(O[C@H]4CCC[C@H](C(=O)O)C4)c(C)n3)cnn2C)n1 [Example 19, (1S,3S)-3-((4-methyl-2-(1-methyl-5-((4-propylpyrimidin-2-yl)amino)-1H-pyrazol-4-yl)pyrimidin-5-yl)oxy)cyclohexane-1-carboxylic acid] | 1410 nM |
| Cc1nc(-c2cnn(C)c2CNc2nccc(OCC(C)(F)F)n2)ncc1O[C@H]1CCC[C@H](C(=O)O)C1 [Example 8, (1S,3S)-3-((2-(5-(((4-(2,2-difluoro-propoxy)pyrimidin-2-yl)amino)methyl)-1-methyl-1H-pyrazol-4-yl)-4-methylpyrimidin-5-yl)oxy)cyclo-hexane-1-carboxylic acid] | 33 nM |
| Cc1nc(-c2cnn(C)c2CNc2nccc(C(C)(C)C)n2)ncc1O[C@H]1CCC[C@H](C(=O)O)C1 [Example 11, (1S,3S)-3-((2-(5-(((4-(tert-butyl)pyrimidin-2-yl)amino)methyl)-1-methyl-1H-pyrazol-4-yl)-4-methyl-pyrimidin-5-yl)oxy)cyclohexane carboxylic acid] | 50 nM |
